Assay results taken from paper PMC8373216, “Development and Preclinical Evaluation of New Inhaled Lipoglycopeptides for the Treatment of Persistent Pulmonary Methicillin-Resistant Staphylococcus aureus Infections” (Antimicrobial Agents and Chemotherapy, 2021).
In brackets after ≈: the same amount, converted by molar mass. Read-outs that look alike come from different tables or passages of the source.

Key:
[1] = system: MSSA ATCC 29213; experiment: In-house broth microdilution MIC screening; type: cell-based; details: Staphylococcus aureus; broth microdilution; read-out: MIC Value, MSSA ATCC 29213
[2] = Single-dose nebulized nose-only inhalation PK in healthy rats; type: in vivo, rat; details: male, Sprague Dawley, rat, in vivo; for Kp / Lung AUC0-∞ / Lung Cmax / Lung t1/2 / Plasma Cmax: inhaled or intranasal
Protocol: Rats were acclimated in the study facility for approximately 1 week prior to study start. Ten or eleven rats per cohort were loaded into the chamber at the time of dosing. […] An additional airflow set to 6 liters/min was admixed with the nebulizer output to further direct the test articles to the animals. […] The remaining port on the chamber was fit with an aerosol sampling filter for dose determination over a 5 min sampling period. The average dose delivered to the nose of each animal was calculated using an algorithm that was previously described ([49]). […] Animals were euthanized for collection of whole lungs and plasma at time points ranging from immediate postdose (IPD; approximately 30 min after dosing for nebulization) to 168 h postdose (7 days). Drugs were extracted from tissues using customized protein precipitation methods with an appropriate internal standard for each compound and transferred for analysis by LC-MS/MS (Sciex API4500 or API6500+ mass spectrometer [Sciex, Framingham, MA]). GraphPad Prism (La Jolla, CA) was used for statistical analyses and data plotting. […] The data were applied to a noncompartmental analysis after extravascular dosing input and fit to a linear up/log down model. Statistical analysis of in vitro intracellular and biofilm activity was based on a two-way ANOVA with a Bonferroni post test. In vivo statistical analysis was based on the Kolmogorov-Smirnov test.

[3] = system: MRSA ATCC BAA 1556 (USA300); experiment: In-house broth microdilution MIC screening; type: cell-based, Staphylococcus aureus; details: Staphylococcus aureus; broth microdilution; read-out: MIC Value, MRSA ATCC BAA 1556
[4] = type: physicochemical; details: pH 8
Protocol: 40 to the primary metabolite.
41 percent degradation is defined as follows:
[LLLLPPLL ] + [MMPPPPDDMM DDMMDDPPPP ]
45 Enzymes studied include :
108 Table S1: Enzyme hydrolysis of RV62 and RV94 was measured as a function of time in PBS (pH 8) at 37
109 °C. Control samples in the absence of enzyme were included as […]. Samples were analyzed
110 by HPLC detecting the parent RV derivative (RV62 or RV94).
RV Percent RV derivative remaining in HPLC chromatograph, % […]

SMILES | MIC [1] [µg/mL] | Pulmonary dose [2] [mg/kg] | Time to full conversion to hydrolysis product in the lung [2] [h] | Drug lung level at 120 h [2] [%] | Primary hydrolysis byproduct lung level at 120 h [2] [%] | Kp [2] | Lung AUC0-∞ [2] [µg·h/g] | Lung Cmax [2] [µg/g] | Lung t1/2 [2] [h] | Plasma Cmax [2] [ng/mL] | MIC [3] [µg/mL] | Percent RV derivative remaining in HPLC chromatograph ([4]; 0 h) [%] | Percent RV derivative remaining in HPLC chromatograph ([4]; 0.5 h) [%] | Percent RV derivative remaining in HPLC chromatograph ([4]; 1 h) [%] | Percent RV derivative remaining in HPLC chromatograph ([4]; 2 h) [%]
CCCCCCCCCCCC(=O)NCCNC1(C)CC(OC2C(Oc3c4cc5cc3Oc3ccc(cc3Cl)C(O)C3NC(=O)C(NC(=O)C5NC(=O)C(CC(N)=O)NC(=O)C(NC(=O)C(CC(C)C)NC)C(O)c5ccc(c(Cl)c5)O4)c4ccc(O)c(c4)-c4c(O)cc(O)cc4C(C(=O)O)NC3=O)OC(CO)C(O)C2O)OC(C)C1O (centres unmarked) [RV62] | 0.016 (≈ 0.00955 µM) | 0.15 | ≤ 24 | 0.1 | 107 | 1550 | 317 | 30 | 11 | 20 | 0.016 (≈ 0.00955 µM) | 97.14 | 97.14 | 97.38 | 97.07
CCCCCCCCCCCCCC(=O)OCCNC1(C)CC(OC2C(Oc3c4cc5cc3Oc3ccc(cc3Cl)C(O)C3NC(=O)C(NC(=O)C5NC(=O)C(CC(N)=O)NC(=O)C(NC(=O)C(CC(C)C)NC)C(O)c5ccc(c(Cl)c5)O4)c4ccc(O)c(c4)-c4c(O)cc(O)cc4C(C(=O)O)NC3=O)OC(CO)C(O)C2O)OC(C)C1O (centres unmarked) [RV88] | 0.125 (≈ 0.0734 µM) | 0.12 | ≤ 24 | 1.5 | 71 | 1350 | 360 | 26 | 21 | 20 | 0.125 (≈ 0.0734 µM) | – | – | – | –
